Reference: patent publication US12344611B2, “Bridged cycloformylpyridine derivatives and uses thereof” (BroadenBio Co., Ltd., priority 2019, dated 2025)

Assays:
Hep 3B hepatoma cells = assay: In vitro cell proliferation assay (CellTiter-Glo, CTG), Hep 3B; format: cell-based, human; settings: Hep 3B cells
Description: (§1) In Vitro Cell Proliferation Assay of FGFR4 (CellTiter-Glo Luminescent Cell Viability Assay, CTG Assay)
(§2) Hep 3B hepatoma cells were purchased from Cell Resource Center of Peking Union College, and HuH-7 hepatoma cells were purchased from Shanghai Biological Technology Co., Ltd. enzyme research. The cells were prepared at a concentration of 3×10^4/mL, which was then added with 100 μL to each well of a 96-well transparent flat-bottom black-walled plate to make 3000 cells per well. Incubate overnight at 37° C. in 5% CO2 incubator. Dilute a compound and add it to the wells having the cells, then add cell culture medium to 200 μL per well. Put in CO2 incubator for incubation. After 96 hours, 100 μL of culture medium was removed from each well, 100 μL of CTG was added, and the 96-well plate was placed on a shaker for 10 minutes, and placed in the shade at room temperature for 45 minutes. Data was read out by SoftMax Pro i3X Microplate Reader of MD, analyzed by the software GraphPad Prism 5.0, and S-shaped dose-response curve was drawn, then the EC50 values were calculated.

FGFR4 = FGFR4 (Homo sapiens, UniProt P22455); assay: In vitro biochemical kinase analysis of FGFR4 (HTRF KinEASE-TK); settings: HTRF kinase assay
Sequence of FGFR4 (P22455 22-802): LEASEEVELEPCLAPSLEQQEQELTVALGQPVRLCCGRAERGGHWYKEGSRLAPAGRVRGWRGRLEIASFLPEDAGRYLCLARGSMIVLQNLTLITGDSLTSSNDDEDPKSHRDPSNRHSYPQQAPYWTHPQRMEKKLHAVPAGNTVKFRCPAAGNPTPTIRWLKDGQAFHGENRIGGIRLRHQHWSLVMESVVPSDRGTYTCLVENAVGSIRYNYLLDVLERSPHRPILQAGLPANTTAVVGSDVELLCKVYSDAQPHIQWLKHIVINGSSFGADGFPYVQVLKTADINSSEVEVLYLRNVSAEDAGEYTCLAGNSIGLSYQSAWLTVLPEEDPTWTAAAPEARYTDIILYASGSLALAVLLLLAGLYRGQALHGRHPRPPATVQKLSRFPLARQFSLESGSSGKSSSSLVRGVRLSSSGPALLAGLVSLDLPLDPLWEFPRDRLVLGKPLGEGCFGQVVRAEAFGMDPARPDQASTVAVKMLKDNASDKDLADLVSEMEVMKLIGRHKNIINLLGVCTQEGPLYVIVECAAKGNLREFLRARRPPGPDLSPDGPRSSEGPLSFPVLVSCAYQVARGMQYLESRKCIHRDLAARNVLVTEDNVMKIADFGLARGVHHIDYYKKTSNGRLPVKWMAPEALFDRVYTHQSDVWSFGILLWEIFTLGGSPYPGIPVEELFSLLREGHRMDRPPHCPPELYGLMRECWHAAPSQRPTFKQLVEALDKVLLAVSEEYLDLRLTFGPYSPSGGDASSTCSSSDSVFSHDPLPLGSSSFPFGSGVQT
Description: In Vitro Biochemical Kinase Analysis of FGFR4
FGFR4 protein kinase detection kit was purchased from Cisbio (HTRF KinEASE-TK kit). Prepare 1× kinase reaction buffer. Transfer 10 nL of a diluted compound to each well of a reaction plate (784075, Greiner) with an Echo 550, and seal the plate with sealing film. The reaction plate was centrifuged at 1000 g for 1 minute. Prepare 2×FGFR4 using 1× kinase reaction buffer, add 5 μL of kinase to each well of the reaction plate, seal the plate, centrifuge at 1000 g for 30 seconds, and incubate it at room temperature for 10 minutes. Prepare a mixture of 2×TK-substrate-biotin and ATP using 1× kinase reaction buffer, add 5 μL of TK-substrate-biotin/ATP mixture to the reaction plate, seal the plate with sealing film, centrifuge at 1000 g for 30 seconds, and react at room temperature for 40 minutes. Prepare 2×Sa-XL 665 and TK-antibody-Cryptate mixture using HTRF detection buffer, add 10 μL Sa-XL 665 and TK-antibody-Cryptate mixture to each well, centrifuge at 1000 g for 30 seconds, and react at room temperature for 1 hour. Envision 2104 read fluorescence signals at 615 nm (Cryptate) and at 665 nm (XL665). IC50 of the compound was calculated using the GraphPad nonlinear fitting formula.

HuH-7 hepatoma cells = assay: In vitro cell proliferation assay (CellTiter-Glo, CTG), HuH-7; format: cell-based; settings: HuH-7 cells
Description: as §1, §2

Compound `CO[C@@H]1CCC[C@H]1Nc1cc(NC(=O)N2c3nc(C=O)ccc3C3(F)CC2C3)ncc1C#N` (relative stereo) [Compound 19, N-(5-cyano-4-(((trans)-2-methoxycyclopentyl)amino)pyridin-2-yl)-4-fluoro-7-formyl-3,4-dihydro-2,4-methylene-1,8-naphthyridine-1(2H)-carboxamide] has an EC50 (Hep 3B hepatoma cells; Homo sapiens, Hep3B, 96 h) of 6 nM, an IC50 (FGFR4) of 0.8 nM and an EC50 (HuH-7 hepatoma cells; Homo sapiens, Huh-7, 96 h) of 31.6 nM.

Work on `N#Cc1cnc(NC(=O)N2c3nc(C=O)ccc3C3(F)CC2C3)cc1N[C@@H]1CCC[C@H]1O` (relative stereo) [Compound 20, N-(5-cyano-4-(((trans)-2-hydroxycyclopentyl)amino)pyridin-2-yl)-4-fluoro-7-formyl-3,4-dihydro-2,4-methylene-1,8-naphthyridine-1(2H)-carboxamide] yielded an EC50 (Hep 3B hepatoma cells; Homo sapiens, Hep3B, 96 h) of 1.2 nM, an IC50 (FGFR4) of 0.6 nM and an EC50 (HuH-7 hepatoma cells; Homo sapiens, Huh-7, 96 h) of 24 nM.

With `CO[C@@H]1CCC[C@H]1Nc1cc(NC(=O)N2c3nc(C=O)c(CN4CCN(C)CC4=O)cc3C3CC2C3)ncc1C#N` (relative stereo) [Compound 26, N-(5-cyano-4-(((trans)-2-methoxycyclopentyl)amino)pyridin-2-yl)-7-formyl-6-((4-methyl-2-oxopiperazin-1-yl)methyl)-3,4-dihydro-2,4-methylene-1,8-naphthyridine-1(2H)-carboxamide] the EC50 (Hep 3B hepatoma cells; Homo sapiens, Hep3B, 96 h) was 1.3 nM, the IC50 (FGFR4) was 0.3 nM and the EC50 (HuH-7 hepatoma cells; Homo sapiens, Huh-7, 96 h) was 1 nM.

`CO[C@@H]1CCC[C@H]1Nc1cc(NC(=O)N2c3nc(C=O)ccc3C3(NC(=O)CN(C)C)CC2C3)ncc1C#N` (relative stereo) [Compound 33, N-(5-cyano-4-(((trans)-2-methoxycyclopentyl)amino)pyridin-2-yl)-4-(2-(dimethylamino)acetamido)-7-formyl-3,4-dihydro-2,4-methylene-1,8-naphthyridine-1(2H)-carboxamide] gave an EC50 (Hep 3B hepatoma cells; Homo sapiens, Hep3B, 96 h) of 0.3 nM, an IC50 (FGFR4) of 0.3 nM and an EC50 (HuH-7 hepatoma cells; Homo sapiens, Huh-7, 96 h) of 0.08 nM.

With `COC1CCCC1Nc1cc(NC(=O)N2c3nc(C=O)c(CN4CCN(C)CC4=O)cc3C3(F)CC2C3)ncc1C#N` (single isomer, unassigned) [Compound 11-P1, N-(5-cyano-4-(((trans)-2-methoxycyclopentyl)amino)pyridin-2-yl)-4-fluoro-7-formyl-64(4-methyl-2-oxopiperazin-1-yl)methyl)-3,4-dihydro-2,4-methylene-1,8-naphthyridine-1(2H)-carboxamide] the EC50 (Hep 3B hepatoma cells; 96 hours) was 5.6 nM, the IC50 (FGFR4) was 1.3 nM and the EC50 (HuH-7 hepatoma cells; 96 hours) was 0.2 nM.

`COC1CCCC1Nc1cc(NC(=O)N2c3nc(C=O)c(CN4CCN(C)CC4=O)cc3C3(F)CC2C3)ncc1C#N` (single isomer, unassigned) [Compound 11-P2, N-(5-cyano-4-(((trans)-2-methoxycyclopentyl)amino)pyridin-2-yl)-4-fluoro-7-formyl-64(4-methyl-2-oxopiperazin-1-yl)methyl)-3,4-dihydro-2,4-methylene-1,8-naphthyridine-1(2H)-carboxamide] was tested, and the EC50 (Hep 3B hepatoma cells; 96 hours) was 32.1 nM, the IC50 (FGFR4) was 9.8 nM and the EC50 (HuH-7 hepatoma cells; 96 hours) was 73.1 nM.

With `COC1CCCC1Nc1cc(NC(=O)N2c3nc(C=O)c(CN4CCN(C)CC4=O)cc3C3(F)CC2C3)ncc1C#N` (single isomer, unassigned) [Compound 12-P1, N-(5-cyano-4-(((cis)-2-methoxycyclopentyl)amino)pyridin-2-yl)-4-fluoro-7-formyl-64(4-methyl-2-oxopiperazin-1-yl)methyl)-3,4-dihydro-2,4-methylene-1,8-naphthyridine-1(2H)-carboxamide] the EC50 (Hep 3B hepatoma cells; 96 hours) was 8.6 nM, the IC50 (FGFR4) was 2.1 nM and the EC50 (HuH-7 hepatoma cells; 96 hours) was 0.9 nM.

`CN1CCN(Cc2cc3c(nc2C=O)N(C(=O)Nc2cc(NC4CCCC4O)c(C#N)cn2)C2CC3(F)C2)C(=O)C1` (stereo not drawn) [Compound 17, N-(5-cyano-4-(((trans)-2-hydroxycyclopentyl)amino)pyridin-2-yl)-4-fluoro-7-formyl-6-((4-methyl-2-oxopiperazin-1-yl)methyl)-3,4-dihydro-2,4-methylene-1,8-naphthyridine-1(21-1)-carboxamide] gave an IC50 (FGFR4) of 0.7 nM and an EC50 (HuH-7 hepatoma cells; Homo sapiens, Huh-7, 96 h) of 0.6 nM.

`N#Cc1cnc(NC(=O)N2c3nc(C=O)ccc3C3(F)CC2C3)cc1NC1CNC1` [Compound 23, N-(5-cyano-4-(azetidin-3-ylamino)pyridin-2-yl)-7-formyl-4-fluoro-3,4-dihydro-2,4-methylene-1,8-naphthyridine-1(2H)-carboxamide] was tested, and the EC50 (Hep 3B hepatoma cells; Homo sapiens, Hep3B, 96 h) was 102 nM.

In the case of `COCCNc1cc(NC(=O)N2c3nc(C=O)ccc3C3(NC(=O)CN(C)C)CC2C3)ncc1C#N` [Compound 30, N-(5-cyano-4-((2-methoxyethyl)amino)pyridin-2-yl)-4-(2-(dimethylamino)acetamido)-7-formyl-3,4-dihydro-2,4-methylene-1,8-naphthyridine-1(2H)-carboxamide], the IC50 (FGFR4) is reported as 1.4 nM and the EC50 (HuH-7 hepatoma cells; Homo sapiens, Huh-7, 96 h) is reported as 0.8 nM.

`COCCNc1cc(NC(=O)N2c3nc(C=O)ccc3C3(N(C)C4CCOC4)CC2C3)ncc1C#N` (stereo not shown) [Compound 34, N-(5-cyano-4-((2-methoxyethyl)amino)pyridin-2-yl)-4-(methyl(tetrahydrofuran-3-yl)amino)-7-formyl-3,4-dihydro-2,4-methylene-1,8-naphthyridine-1(2H)-carboxamide] gave an EC50 (Hep 3B hepatoma cells; Homo sapiens, Hep3B, 96 h) of 10.7 nM and an IC50 (FGFR4) of 1.2 nM.

`COCCNc1cc(NC(=O)N2c3nc(C=O)ccc3C3(OCCN4CCCC4)CC2C3)ncc1C#N` [Compound 35, N-(5-cyano-4-((2-methoxyethyl)amino)pyridin-2-yl)-4-(2-(pyrrolidin-1-yl)ethoxy)-7-formyl-3,4-dihydro-2,4-methylene-1,8-naphthyridine-1(2H)-carboxamide] was tested, and the EC50 (Hep 3B hepatoma cells; Homo sapiens, Hep3B, 96 h) was 2.2 nM and the IC50 (FGFR4) was 1.1 nM.

`CCC(=O)NC12CC(C1)N(C(=O)Nc1cc(NCCOC)c(C#N)cn1)c1nc(C=O)ccc12` [Compound 37, N-(5-cyano-4-((2-methoxyethyl)amino)pyridin-2-yl)-4-propionamido-7-formyl-3,4-dihydro-2,4-methylene-1,8-naphthyridine-1(2H)-carboxamide] was tested, and the EC50 (Hep 3B hepatoma cells; Homo sapiens, Hep3B, 96 h) was 6.4 nM and the IC50 (FGFR4) was 2.5 nM.

`COCCNc1cc(NC(=O)N2c3nc(C=O)ccc3C3(N(C)C(=O)c4cnn(C)c4)CC2C3)ncc1C#N` [Compound 42] gave an EC50 (Hep 3B hepatoma cells; Homo sapiens, Hep3B, 96 h) of 7.2 nM and an IC50 (FGFR4) of 3.2 nM.

`COCCNc1cc(NC(=O)N2c3nc(C=O)ccc3C3(N4CCN(C)CC4=O)CC2C3)ncc1C#N` [Compound 43, N-(5-cyano-4-((2-methoxyethyl)amino)pyridin-2-yl)-7-formyl-4-(4-methyl-2-oxopiperazin-1-yl)-3,4-dihydro-2,4-methylene-1,8-naphthyridine-1(2H)-carboxamide] showed an EC50 (Hep 3B hepatoma cells; Homo sapiens, Hep3B, 96 h) of 6.5 nM and an IC50 (FGFR4) of 3.1 nM.

In the case of `COCCNc1cc(NC(=O)N2c3nc(C=O)ccc3C3(NC(=O)N4CCOCC4)CC2C3)ncc1C#N` [Compound 44, N-(5-cyano-4-((2-methoxyethyl)amino)pyridin-2-yl)-7-formyl-4-(morpholine-4-carboxamido)-3,4-dihydro-2,4-methylene-1,8-naphthyridine-1(2H)-carboxamide], the EC50 (Hep 3B hepatoma cells; Homo sapiens, Hep3B, 96 h) is reported as 12.3 nM and the IC50 (FGFR4) is reported as 2.5 nM.

`COCCNc1cc(NC(=O)N2c3nc(C=O)ccc3C3(OCC(=O)N4CCOCC4)CC2C3)ncc1C#N` [Compound 45, N-(5-cyano-4-((2-methoxyethyl)amino)pyridin-2-yl)-4-(2-(morpholin-4-yl)-2-oxoethoxy)-7-formyl-3,4-dihydro-2,4-methylene-1,8-naphthyridine-1(2H)-carboxamide] showed an EC50 (Hep 3B hepatoma cells; Homo sapiens, Hep3B, 96 h) of 11.4 nM and an IC50 (FGFR4) of 1.8 nM.

Work on `COCCNc1cc(NC(=O)N2c3nc(C=O)ccc3C3(NC(=O)CO)CC2C3)ncc1C#N` [Compound 47, N-(5-cyano-4-((2-methoxyethyl)amino)pyridin-2-yl)-4-(2-hydroxyacetamido)-7-formyl-3,4-dihydro-2,4-methylene-1,8-naphthyridine-1(2H)-carboxamide] yielded an EC50 (Hep 3B hepatoma cells; Homo sapiens, Hep3B, 96 h) of 17.8 nM and an IC50 (FGFR4) of 2.8 nM.

`COCCNc1cc(NC(=O)N2c3nc(C=O)ccc3C3(NC(=O)c4ccccn4)CC2C3)ncc1C#N` [Compound 48, N-(5-cyano-4-((2-methoxyethyl)amino)pyridin-2-yl)-4-(pyridine-2-carboxamido)-7-formyl-3,4-dihydro-2,4-methylene-1,8-naphthyridine-1(2H)-carboxamide] showed an IC50 (FGFR4) of 1.6 nM.

Work on `COCCNc1cc(NC(=O)N2c3nc(C=O)ccc3C3(NC(=O)c4ccc[nH]4)CC2C3)ncc1C#N` [Compound 49] yielded an IC50 (FGFR4) of 1.6 nM.

Compound `COCCNc1cc(NC(=O)N2CCCc3cc(CN4CCN(C)CC4=O)c(C=O)nc32)ncc1C#N` [Positive Control Compound, N-(5-cyano-4-((2-methoxyethyl)amino)pyridin-2-yl)-7-formyl-6-((4-methyl-2-oxopiperazin-1-yl)methyl)-3,4-dihydro-1,8-naphthyridine-1(2H)-carboxamide, reference compound] has an EC50 (Hep 3B hepatoma cells; Homo sapiens, Hep3B, 96 h) of 15 nM and an EC50 (HuH-7 hepatoma cells; Homo sapiens, Huh-7, 96 h) of 52 nM.
